Legend:
NCI-H1373 cells [1] = assay: Cell Titer-Glo viability assay in NCI-H1373 cells; assay type: cell-based; conditions: 6 d treatment, increasing concentrations
From the text: Curves were fit using three parameter a nonlinear regression in GraphPad Prism.

PARP7 [2] = molecular target: T1, PARP7 (Mus musculus (Mouse), UniProt Q8C1B2); assay: PARP7 protein levels Western blot in CT-26 cells; assay type: cell-based
Experimental: (§1) FIG. 4B provides of Western blots in FIG. 4A. Quantification was performed using BioRad ImageLab software. Curves were fit using four parameter nonlinear regression in GraphPad Prism. STAT1 and pSTAT1 levels were normalized to tubulin. Data was from 3 biological replicates. […] Treatment was as in FIG. 4A. Note: tubulin blot was the same as in FIG. 4A since samples were run on the same nitrocellulose membrane for western blot analysis. SE=short exposure; LE=long exposure. […] Treatment was as in FIG. 4A. Note: tubulin blot is the same as in FIG. 4A since samples were run on the same nitrocellulose membrane for western blot analysis. […] Quantification was performed using BioRad ImageLab software. Curves fitting was done using a four parameter nonlinear regression in GraphPad Prism. PARP7 levels were normalized to tubulin. Data was from 3 biological replicates. […] IFN-0 levels were determined by ELISA (PBL Assay Science). Statistical analysis was performed as one-way ANOVA in GraphPad Prism. ****=p<0.001. […] Luciferase levels were measured using a luciferase assay reagent (Promega). […] Treatment was same as in FIG. 10A. Note: tubulin blot is the same as in FIG. 10A since samples were run on the same nitrocellulose membrane for western blot analysis. […] Treatment was same as in FIG. 10A. […] Proteins were detected by Western blot using specific antibodies.

IFN-β = IFN-β ELISA in CT-26 cells; assay type: cell-based; conditions: 300 nM, 16 h, with or without STING inhibitor H-151 (500 nM)
Experimental: (§2) FIG. 4B provides of Western blots in FIG. 4A. Quantification was performed using BioRad ImageLab software. Curves were fit using four parameter nonlinear regression in GraphPad Prism. STAT1 and pSTAT1 levels were normalized to tubulin. Data was from 3 biological replicates. […] Treatment was as in FIG. 4A. Note: tubulin blot was the same as in FIG. 4A since samples were run on the same nitrocellulose membrane for western blot analysis. SE=short exposure; LE=long exposure. […] Treatment was as in FIG. 4A. Note: tubulin blot is the same as in FIG. 4A since samples were run on the same nitrocellulose membrane for western blot analysis. […] Quantification was performed using BioRad ImageLab software. Curves fitting was done using a four parameter nonlinear regression in GraphPad Prism. PARP7 levels were normalized to tubulin. Data was from 3 biological replicates. […] IFN-0 levels were determined by ELISA (PBL Assay Science). Statistical analysis was performed as one-way ANOVA in GraphPad Prism. ****=p<0.001. […] Luciferase levels were measured using a luciferase assay reagent (Promega).

STING = STING degradation and signaling Western blot in CT-26 cells; assay type: cell-based
Experimental: as §1

[3] = tested on: type I interferon reporter; assay: IRSE luciferase reporter in CT-26 cells; assay type: cell-based; conditions: CT-26 cells stably expressing IRSE luciferase reporter, 16 h
Experimental: as §2

endogenous PARP7 = endogenous PARP7 (Mus musculus (Mouse), UniProt Q8C1B2); assay: Endogenous PARP7 protein levels in CT-26 cells (western blot); assay type: cell-based
GFP-PARP7 = GFP-PARP7 (Homo sapiens (Human), UniProt Q7Z3E1); assay: Live cell imaging of GFP-PARP7 in HeLa cells; assay type: cell-based; conditions: HeLa cells overexpressing GFP-PARP7 and mRuby2-Nup90, 300 nM
[4] = tested on: STAT1 and phosphor-Tyr701-STAT1 (pSTAT1); assay: STAT1 and pSTAT1 Western blot in CT-26 cells; assay type: cell-based
Experimental: as §1

[5] = tested on: STAT1 and STAT1 Tyr701 phosphorylation (pSTAT1); assay: STAT1 and pSTAT1 (Tyr701) western blot in CT-26 cells; assay type: cell-based, mouse; conditions: increasing concentrations, 16 h
PARP7 [6] = molecular target: T1, PARP7; assay: Cell fractionation and PARP7 Western blot in CT-26 cells; assay type: cell-based; conditions: 300 nM, 18 h, fractionation
NCI-H1373 cells [7] = assay: Cell Titer-Glo viability, NCI-H1373; assay type: cell-based; conditions: Homo sapiens, NCI-H1373, 144 h; 6 days, CellTiter-Glo
Experimental: NCI-H1373 cells were seeded in a white 96-well plate (Corning) at a density of 1,000 cells per well. After 24 hours, cells were treated with PARP7 inhibitors and incubated at 37° C. for 6 days. Cell viability was assessed using CellTiter-Glo (CTG) 2.0 (Promega). After addition of the CTG reagent (following manufacturer protocol), the plate was incubated on an orbital shaker for 15 min (protected from light) at room temperature. Chemiluminescence was measured on a Spectra Max i3 (Molecular Devices), normalized to DMSO-treated wells, and IC50 values were calculated by non-linear regression (three-parameter fit) analysis using Prism 9 (GraphPad).

[8] = tested on: interferon-sensitive response element (ISRE)-firefly luciferase; assay: ISRE luciferase assay, ISRE-Luc CT-26 cells; assay type: cell-based, mouse; conditions: 16 h, saturating doses
Experimental: 10,000 ISRE-Luc CT-26 or WT CT-26 cells were seeded into wells of a white 96-well plate and grown overnight. Compounds were serial diluted at 1000× concentration in DMSO. For dosing, compound dose response curves were dilute 1:100 in culture media, then added at 1:10 dilution to cell culture. Final DMSO concentration was 0.1%. Cells were incubated in treatment for 18 hours. Following treatment, the plates were developed using ONE-Glo Luciferase Assay system (Promega) per manufacturer directions. The luminescence signal was read on a Spectra Max i3 (Molecular Devices) plate reader with a 2 second integration time. WT CT-26 signal was background subtracted and curves were fit using a four-parameter […] regression in GraphPad Prism 9.

secreted IFN-β = assay: Interferon-β ELISA, CT-26 cells; assay type: cell-based, mouse; conditions: saturating doses
Experimental: CT-26 cells were seeded into a 6-well plate. After 24 h, the growth media was replaced, and cells were treated with inhibitors. After treatment, growth media was harvested and assayed with PBL Verikine Mouse IFN-β ELISA kit following the manufacturer protocol.

HiBiT-PARP7 = HiBiT-PARP7 (Mus musculus (Mouse), UniProt Q8C1B2); assay: Nuclear PARP7 immunofluorescence in HiBiT-PARP7 knockin CT-26 cells; assay type: cell-based; conditions: HiBiT-PARP7 KI CT-26 cells, 300 nM, 18 h
[9] = increasing concentrations, 16 h

Chain of endogenous PARP7 (Q8C1B2 whole entry): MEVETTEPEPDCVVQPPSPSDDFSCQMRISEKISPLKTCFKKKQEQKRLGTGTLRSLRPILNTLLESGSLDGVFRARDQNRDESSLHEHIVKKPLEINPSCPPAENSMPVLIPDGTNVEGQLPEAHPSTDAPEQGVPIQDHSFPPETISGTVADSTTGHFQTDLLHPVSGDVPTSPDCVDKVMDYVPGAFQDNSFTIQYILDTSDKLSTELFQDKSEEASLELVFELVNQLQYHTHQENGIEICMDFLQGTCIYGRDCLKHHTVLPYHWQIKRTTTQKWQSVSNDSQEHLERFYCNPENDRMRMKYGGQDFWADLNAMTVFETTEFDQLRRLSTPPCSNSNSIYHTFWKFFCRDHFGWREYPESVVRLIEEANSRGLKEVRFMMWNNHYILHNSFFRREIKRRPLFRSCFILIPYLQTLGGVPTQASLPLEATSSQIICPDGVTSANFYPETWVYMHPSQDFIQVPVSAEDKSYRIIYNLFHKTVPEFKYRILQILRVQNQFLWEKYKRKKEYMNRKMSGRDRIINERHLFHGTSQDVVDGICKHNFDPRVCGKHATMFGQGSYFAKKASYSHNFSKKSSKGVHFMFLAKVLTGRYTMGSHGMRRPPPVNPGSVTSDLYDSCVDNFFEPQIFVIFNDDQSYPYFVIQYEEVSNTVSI
Chain of GFP-PARP7 (Q7Z3E1 whole entry): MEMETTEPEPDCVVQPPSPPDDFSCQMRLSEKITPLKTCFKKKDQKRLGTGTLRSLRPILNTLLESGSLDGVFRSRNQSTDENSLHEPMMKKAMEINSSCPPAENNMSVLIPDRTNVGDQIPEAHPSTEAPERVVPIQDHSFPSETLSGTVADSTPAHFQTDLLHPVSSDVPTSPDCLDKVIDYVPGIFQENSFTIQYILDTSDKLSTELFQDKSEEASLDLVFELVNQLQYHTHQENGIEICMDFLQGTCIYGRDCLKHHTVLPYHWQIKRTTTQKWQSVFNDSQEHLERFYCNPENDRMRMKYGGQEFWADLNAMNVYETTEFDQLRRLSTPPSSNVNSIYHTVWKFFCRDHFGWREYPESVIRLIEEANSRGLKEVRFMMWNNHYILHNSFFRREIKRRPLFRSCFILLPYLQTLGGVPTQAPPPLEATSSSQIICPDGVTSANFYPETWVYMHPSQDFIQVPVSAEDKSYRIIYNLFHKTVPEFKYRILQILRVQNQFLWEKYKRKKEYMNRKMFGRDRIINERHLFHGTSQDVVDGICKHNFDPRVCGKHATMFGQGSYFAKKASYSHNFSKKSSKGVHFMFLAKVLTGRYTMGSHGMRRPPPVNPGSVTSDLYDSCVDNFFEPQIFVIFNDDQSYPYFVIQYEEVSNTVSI
Chain of HiBiT-PARP7 (Q8C1B2 whole entry): as the sequence (Q8C1B2 whole entry) above

endogenous PARP7 levels (endogenous PARP7): increased PARP7 levels
increase in PARP7 protein abundance compared to Example 10 (endogenous PARP7; saturating doses): 2 fold
time to detectable increase in nuclear PARP7 levels (GFP-PARP7): ≤ 30 min
EC50 (NCI-H1373 cells [7]): 0.0178 µM
nuclear PARP7 protein levels (HiBiT-PARP7): increases nuclear PARP7 protein levels
SMILES: C[C@@H](COCCC(=O)N1CCN(c2ncc(C(F)(F)F)cn2)CC1)Nc1cn[nH]c(=O)c1C(F)(F)F [RBN-2397]
cell viability (NCI-H1373 cells [1]): decreases viability
PARP7 levels, time dependence (PARP7 [2]; 300 nM): increase PARP7 levels in a time-dependent manner
PARP7 levels, dose dependence (PARP7 [2]; [9]): increase PARP7 levels in a dose-dependent manner
IFN-β levels (IFN-β): increase IFN-β levels in a STING-dependent manner
STING and pIRF3 levels, time dependence (STING; 300 nM): decrease STING levels and increase pIRF3 levels in a time-dependent manner
STING degradation and signaling (STING; [9]): induced STING degradation and signaling, but not to the same extent as a STING agonist
type I interferon reporter levels [3]: increase type I interferon reporter levels in a dose dependent manner
STAT1 and pSTAT1 levels, time dependence ([4]; 300 nM): increase STAT1 and pSTAT1 in a time-dependent manner
STAT1 and pSTAT1 levels, dose dependence [4, 9]: increase STAT1 and phosphor-Tyr701-STAT1 (pSTAT1) in a dose-dependent manner
STAT1 and pSTAT1 levels [5]: dose-dependently increased STAT1 and pSTAT1 levels
subcellular localisation of PARP7 (PARP7 [6]): PARP7 levels were only detected in nucleus
magnitude of ISRE-Luc response compared to Example 10 [8]: ~2 fold
levels of secreted IFN-β (secreted IFN-β): increased significantly the levels of secreted IFN-β to a greater extent than Example 10

From patent US20260055079A1, “PHTHALAZINONE COMPOUNDS AS PARP7 INHIBITORS” (AZKARRA THERAPEUTICS, INC., priority 2022, published 2026)
